The values below come from patent US10681909B2, “Herbicidal triazoles” (FMC Corporation, priority 2014, dated 2020).

Experiment [1] relates to morningglory. In words: Test A preemergence. The experiment is classed as in vivo, Ipomoea spp. The following applies: Ipomoea, pre-emergence, 240 h, 0 to 100 scale (0 no effect, 100 complete control), read-out: Plant response rating, Morningglory; for pest or weed control at 125 g/ha: 125 g ai/ha; for pest or weed control at 500 g/ha: 500 g ai/ha, approx. 10 d. In a few lines: (§1)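 Herbicidal response was scored on plants treated pre- or postemergence with surfactant-containing, non-phytotoxic solvent formulations. Preemergence meant a directed spray onto soil (loam–sand) holding sown seed; postemergence plants were at one to two leaves.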

The test system of experiment [2] is wheat. In words: Test A preemergence. It is filed as in vivo, Triticum aestivum. Particulars: Triticum aestivum, pre-emergence, 240 h, 0 to 100 scale (0 no effect, 100 complete control), read-out: Plant response rating, Wheat; for plant injury at 125 g/ha: 125 g ai/ha; for plant injury at 500 g/ha: 500 g ai/ha, approx. 10 d. The procedure, abridged:
as §1

Experiment [3] concerns crabgrass, large. In words: Test A postemergence. It is filed as in vivo, Digitaria sanguinalis. The following applies: Digitaria sanguinalis, post-emergence, 240 h, 0 to 100 scale (0 no effect, 100 complete control), approx. 10 d, read-out: Plant response rating, Crabgrass, Large; for pest or weed control at 125 g/ha: 125 g ai/ha; for pest or weed control at 500 g/ha: 500 g ai/ha. In a few lines:
as §1

For experiment [4], the system named is morningglory. In words: Test A postemergence. The experiment is classed as in vivo, Ipomoea spp. Particulars: Ipomoea, post-emergence, 240 h, 0 to 100 scale (0 no effect, 100 complete control), approx. 10 d, read-out: Plant response rating, Morningglory; for pest or weed control at 125 g/ha: 125 g ai/ha; for pest or weed control at 500 g/ha: 500 g ai/ha. The procedure, abridged:
as §1

Experiment [5] has as its system nutsedge, yellow. In words: Test C preemergence. The experiment is classed as in vivo, Cyperus esculentus. Particulars: for Plant response rating (scale of 0 to 100 where 0 is no effect and 100 is complete control): Nutsedge, Yellow, preemergence; for Nutsedge, Yellow plant response rating (0 to 100): Preemergence, visual rating after 13 to 15 d. The text has this:
(§2) Seeds of plant species selected from blackgrass (Alopecurus myosuroides), ryegrass, Italian (Italian ryegrass, Lolium multiflorum), wheat (winter wheat, Triticum aestivum), galium (catchweed bedstraw, Galium aparine), corn (Zea mays), crabgrass, large (large crabgrass, Digitaria sanguinalis), foxtail, giant, (giant foxtail, Setaria faberii), johnsongrass (Sorghum halepense), lambsquarters (Chenopodium album), morningglory (Ipomoea coccinea), nutsedge, yellow (yellow nutsedge, Cyperus esculentus), pigweed (Amaranthus retroflexus), ragweed (common ragweed, Ambrosia elatior), soybean (Glycine max), barnyardgrass (Echinochloa crus-galli), oilseed rape (Brassica napus), waterhemp (common waterhemp, Amaranthus rudis), and velvetleaf (Abutilon theophrasti) were planted into a blend of loam soil and sand and treated preemergence with test chemicals formulated in a non-phytotoxic solvent mixture which included a surfactant. At the same time, plants selected from these crop and weed species and also chickweed (common chickweed, Stellaria media), oat, wild (wild oat, Avena fatua), and kochia (Kochia scoparia), were planted in pots containing Sunshine Redi-Earth® planting medium comprising spaghnum peat moss, vermiculite, starter nutrients and dolomitic limestone and treated with postemergence applications of test chemicals formulated in the same manner. Plants ranged in height from 2 to 18 cm (1- to 4-leaf stage) for postemergence treatments. […] A dash (-) response means no test result.

Experiment [6] concerns oilseed rape. In words: Test C preemergence. The following applies: for Plant response rating (scale of 0 to 100 where 0 is no effect and 100 is complete control): Oilseed Rape, preemergence; for Oilseed Rape plant response rating (0 to 100): Preemergence, visual rating after 13 to 15 d. The experiment is classed as in vivo, Brassica napus.
Description: as §2

Take `Cn1nc(-c2ccc(F)cc2)nc1Oc1cccc(C(F)(F)F)c1` [Compound 5, 3-(4-fluorophenyl)-1-methyl-5-[3-(trifluoromethyl)phenoxy]-1H-1,2,4-triazole]: the results for the pest or weed control at 125 g/ha in experiment [1], in experiment [3] and in experiment [4] were 0%, 30% and 50%, respectively. Moreover, the pest or weed control at 500 g/ha in experiment [1] is 0%; in experiment [3], 90%; in experiment [4], 100%. Also, the plant injury at 125 g/ha in experiment [2] was found to be 0%. In addition, in experiment [2], the plant injury at 500 g/ha came out at 0%.

For the compound `CCCc1nc(-c2ccc(F)cc2)nn1Cc1ccnc(C(F)(F)F)c1` [Compound 6, 4-[[3-(4-fluorophenyl)-5-propyl-1H-1,2,4-triazol-1-yl]methyl]-2-(trifluoromethyl)pyridine], the pest or weed control at 125 g/ha came to 50% in experiment [1], 90% in experiment [3] and 100% in experiment [4]. Besides, the pest or weed control at 500 g/ha in experiment [1] was determined as 100%; in experiment [3], 90%; in experiment [4], 100%. The plant injury at 125 g/ha in experiment [2] came out at 10%. For the same compound, the plant injury at 500 g/ha in experiment [2] came out at 60%. The “Plant response rating (scale of 0 to 100 where 0 is no effect and 100 is complete control)” value in experiment [5] (125 g ai/ha) is recorded as 35; in experiment [5] (250 g ai/ha) it was 50; in experiment [6] (125 g ai/ha), 100; in experiment [6] (250 g ai/ha), 100. In addition, the “Nutsedge, Yellow plant response rating (0 to 100)” value (from here on “Nutsedge … (0 to 100)”) in experiment [5] (31 g ai/ha) is 25; in experiment [5] (62 g ai/ha), 30. The results for the “Oilseed Rape plant response rating (0 to 100)” value in experiment [6] (31 g ai/ha) and in experiment [6] (62 g ai/ha) were 70 and 100, respectively.

For the compound `COc1nc(-c2ccc(F)cc2)nn1Cc1ccnc(C(F)(F)F)c1` [Compound 9, 4-[[3-(4-fluorophenyl)-5-methoxy-1H-1,2,4-triazol-1-yl]methyl]-2-(trifluoromethyl)pyridine], the pest or weed control at 125 g/ha in experiment [1] was determined as 10%; in experiment [3], 90%; in experiment [4] it was 90%. Moreover, the results for the pest or weed control at 500 g/ha in experiment [1], in experiment [3] and in experiment [4] were 90%, 100% and 100%, respectively. For the same compound, in experiment [2], the plant injury at 125 g/ha is 0%. Moreover, the plant injury at 500 g/ha in experiment [2] worked out at 50%. In addition, the “Plant response rating (scale of 0 to 100 where 0 is no effect and 100 is complete control)” value came out at 35 in experiment [5] (125 g ai/ha), 50 in experiment [5] (250 g ai/ha), 95 in experiment [6] (125 g ai/ha) and 100 in experiment [6] (250 g ai/ha). Besides, the “Nutsedge … (0 to 100)” value in experiment [5] (31 g ai/ha) is listed as 10; in experiment [5] (62 g ai/ha), 5. The entries for the “Oilseed Rape plant response rating (0 to 100)” value in experiment [6] (31 g ai/ha) and in experiment [6] (62 g ai/ha) were 0 and 60, respectively.

As for `Cn1nc(-c2ccc(F)cc2)nc1C(O)c1ccnc(C(F)(F)F)c1` (stereo not drawn) [Compound 14, α-[3-(4-fluorophenyl)-1-methyl-1H-1,2,4-triazol-5-yl]-2-(trifluoromethyl)-4-pyridinemethanol], the results for the pest or weed control at 125 g/ha in experiment [1], in experiment [3] and in experiment [4] were 0%, 20% and 40%, respectively. Further, the figures for the pest or weed control at 500 g/ha in experiment [1], in experiment [3] and in experiment [4] were 0%, 30% and 80%, respectively. Moreover, the plant injury at 125 g/ha in experiment [2] worked out at 0%. Also, the plant injury at 500 g/ha in experiment [2] was 0%.

For `CCn1nc(-c2ccc(F)cc2)nc1C(O)c1ccnc(C(F)(F)F)c1` (stereo not drawn) [Compound 15, α-[1-Ethyl-3-(4-fluorophenyl)-1H-1,2,4-triazol-5-yl]-2-(trifluoromethyl)-4-pyridinemethanol], the pest or weed control at 125 g/ha in experiment [1], in experiment [3] and in experiment [4] was 0% each time. In addition, the pest or weed control at 500 g/ha in experiment [1] was 0%; in experiment [3], 10%; in experiment [4], 10%. Also, the plant injury at 125 g/ha in experiment [2] was 0%. For the same compound, the plant injury at 500 g/ha in experiment [2] is 0%.

Take `CCCn1nc(-c2ccc(F)cc2)nc1Cc1ccnc(C(F)(F)F)c1` [Compound 17, 4-[[3-(4-fluorophenyl)-1-propyl-1H-1,2,4-triazol-5-yl]methyl]-2-(trifluoromethyl)pyridine]: in experiment [1], the pest or weed control at 125 g/ha worked out at 70% and the pest or weed control at 500 g/ha came to 90%. In experiment [2], the plant injury at 125 g/ha came out at 30% and the plant injury at 500 g/ha is 70%. In experiment [3], the pest or weed control at 125 g/ha was 90% and the pest or weed control at 500 g/ha was 90%. In addition, in experiment [4], the pest or weed control at 125 g/ha worked out at 70% and the pest or weed control at 500 g/ha is 100%.

For the compound `CCn1nc(-c2ccc(F)cc2)nc1C(=O)c1ccnc(C(F)(F)F)c1` [Compound 19, [1-ethyl-3-(4-fluorophenyl)-1H-1,2,4-triazol-5-yl][2-(trifluoromethyl)-4-pyridinyl]methanone], in experiment [1], the pest or weed control at 125 g/ha was determined as 0% and the pest or weed control at 500 g/ha was found to be 0%. In addition, in experiment [2], the plant injury at 125 g/ha came out at 0% and the plant injury at 500 g/ha stood at 0%. Also, in experiment [3], the pest or weed control at 125 g/ha was 0% and the pest or weed control at 500 g/ha is 0%. In experiment [4], the pest or weed control at 125 g/ha came out at 0% and the pest or weed control at 500 g/ha was 0%.

On to `CS(=O)(=O)c1nc(-c2ccc(F)cc2)nn1Cc1ccnc(C(F)(F)F)c1` [Compound 29, 4-[[3-(4-fluorophenyl)-5-(methylsulfonyl)-1H-1,2,4-triazole-1-yl]methyl]-2-(trifluoromethyl)pyridine], for which, in experiment [1], the pest or weed control at 125 g/ha is 0% and the pest or weed control at 500 g/ha worked out at 0%. In addition, in experiment [2], the plant injury at 125 g/ha amounted to 0% and the plant injury at 500 g/ha was 0%. Moreover, in experiment [3], the pest or weed control at 125 g/ha was determined as 0% and the pest or weed control at 500 g/ha is 0%. In experiment [4], the pest or weed control at 125 g/ha is 0% and the pest or weed control at 500 g/ha worked out at 0%.

On to `COc1nc(-c2ccccc2)nn1Cc1ccnc(C(F)(F)F)c1` [Compound 32], for which the “Plant response rating (scale of 0 to 100 where 0 is no effect and 100 is complete control)” value in experiment [5] (125 g ai/ha) is 5; in experiment [5] (250 g ai/ha), 20; in experiment [6] (125 g ai/ha), 10; in experiment [6] (250 g ai/ha), 85. In addition, the “Nutsedge … (0 to 100)” value in experiment [5] (31 g ai/ha) and in experiment [5] (62 g ai/ha) was 0 throughout. The figures for the “Oilseed Rape plant response rating (0 to 100)” value in experiment [6] (31 g ai/ha) and in experiment [6] (62 g ai/ha) were 5 and 20, respectively.
